Reference: patent publication US10464926B2, “Heterobicyclic compounds and their use for the treatment of tuberculosis” (OTSUKA PHARMACEUTICAL CO., LTD., priority 2014, dated 2019)

Key:
[1] = test system: Mycobacterium tuberculosis (M. tuberculosis Kurono); assay: Antibacterial test (agar dilution method), M. tuberculosis Kurono; assay type: cell-based; conditions: 7H11 agar medium, about 10^6 CFU/mL, 37° C. for 14 days; for MIC: Mycobacterium tuberculosis, 336 h, read-out: Minimum inhibitory concentration (MIC) kurono
[2] = test system: Mycobacterium tuberculosis (M. tuberculosis H37Rv); assay: Antibacterial test (agar plate dilution method), M. tuberculosis H37Rv; assay type: cell-based; conditions: 336 h, 7H11 agar medium, about 10^6 CFU/mL, 37° C. for 14 days, read-out: minimum inhibitory concentration against M. tuberculosis H37Rv

SMILES | melting point | MIC [1] | Minimum inhibitory concentration (MIC) kurono [1] | MIC [2]
O=C1CCc2c(OCC3(O)CCN(c4ccc(OCc5ccc(OC(F)(F)F)cc5)cc4F)CC3)ccc(F)c2N1 [Example 152, 8-Fluoro-5-{[1-(2-fluoro-4-{[4-(trifluoromethoxy)benzyl]oxy}phenyl)-4-hydroxypiperidin-4-yl]methoxy}-3,4-dihydroquinolin-2(1H)-one] | 199.9 to 200.5 °C | < 0.39 µg/mL |  | 
O=c1ccc2c(OCC3(O)CCN(c4ccc(Cl)cc4F)CC3)cccc2[nH]1 [Example 138, 5-{[1-(4-Chloro-2-fluorophenyl)-4-hydroxypiperidin-4-yl]methoxy}quinolin-2(1H)-one] | 275.7 to 277 °C | < 0.39 µg/mL |  | 
O=C1CCc2c(OC[C@]3(O)CCN(c4c(F)cc(Cl)cc4F)C[C@H]3F)ccc(F)c2N1 [Example 448, 5-{[(3R,4R)-1-(4-Chloro-2,6-difluorophenyl)-3-fluoro-4-hydroxypiperidin-4-yl]methoxy}-8-fluoro-3,4-dihydroquinolin-2(1H)-one] | 207 to 209 °C | < 0.39 µg/mL |  | 
O=C1CCc2c(cccc2OC[C@]2(O)CCN(c3ccc(Br)cc3F)C[C@H]2O)N1 [Example 347, 5-{[(3R,4R)-1-(4-Bromo-2-fluorophenyl)-3,4-dihydroxypiperidin-4-yl]methoxy}-3,4-dihydroquinolin-2(1H)-one] | 226 to 227 °C | < 0.39 µg/mL |  | 
O=C1CCc2c(OC[C@@]3(O)CCN(c4c(F)cc(Cl)cc4F)C[C@H]3F)ccc(F)c2N1 [Example 446, 5-{[(3R,4S)-1-(4-Chloro-2,6-difluorophenyl)-3-fluoro-4-hydroxypiperidin-4-yl]methoxy}-8-fluoro-3,4-dihydroquinolin-2(1H)-one] | 224 to 225 °C | < 0.39 µg/mL |  | 
O=C1CCc2c(SCC3(O)CCN(c4ccc(Cl)cc4F)CC3)ccc(F)c2N1 [Example 460, 5-({[1-(4-Chloro-2-fluorophenyl)-4-hydroxypiperidin-4-yl]methyl}sulfanyl)-8-fluoro-3,4-dihydroquinolin-2(1H)-one] | 171 to 172 °C | < 0.39 µg/mL |  | 
O=C1CCc2c(OCC3(O)CCN(c4ccc(Cl)cc4F)CC3)ccc(F)c2N1 [Example 52, 5-{[1-(4-Chloro-2-fluorophenyl)-4-hydroxypiperidin-4-yl]methoxy}-8-fluoro-3,4-dihydroquinolin-2(1H)-one] | 190.6 to 190.7 °C | < 0.39 µg/mL |  | 
O=C1CCc2c(OCC3(O)CCN(c4c(F)cc(Cl)cc4F)CC3)ccc(Cl)c2N1 [Example 102, 8-Chloro-5-{[1-(4-chloro-2,6-difluorophenyl)-4-hydroxypiperidin-4-yl]methoxy}-3,4-dihydroquinolin-2(1H)-one] | 181 to 181.2 °C | < 0.39 µg/mL |  | 
COCCOc1cc(N2CCC(O)(COc3ccc(Cl)c4c3CCC(=O)N4)CC2)c(F)cc1Cl [Example 175, 8-Chloro-5-({1-[4-chloro-2-fluoro-5-(2-methoxyethoxy)phenyl]-4-hydroxypiperidin-4-yl}methoxy)-3,4-dihydroquinolin-2(1H)-one] | 143.5 to 145.1 °C | < 0.39 µg/mL |  | 
O=C1CCc2c(OC[C@@]3(O)CCN(c4ccc(Br)cc4F)C[C@H]3O)ccc(Cl)c2N1 [Example 364, 5-{[(3R,4S)-1-(4-Bromo-2-fluorophenyl)-3,4-dihydroxypiperidin-4-yl]methoxy}-8-chloro-3,4-dihydroquinolin-2(1H)-one] | 185.8 to 186 °C | < 0.39 µg/mL |  | 
CCOc1ccc(N2CCC(O)(COc3ccc(F)c4c3CCC(=O)N4)CC2)c(F)c1 [Example 85, 5-{[1-(4-Ethoxy-2-fluorophenyl)-4-hydroxypiperidin-4-yl]methoxy}-8-fluoro-3,4-dihydroquinolin-2(1H)-one] | 196 to 196.1 °C | < 0.39 µg/mL |  | 
O=C1CCc2c(OC[C@]3(O)CCN(c4c(F)cc(Cl)cc4F)C[C@@H]3F)ccc(F)c2N1 [Example 447, 5-{[(3S,4R)-1-(4-Chloro-2,6-difluorophenyl)-3-fluoro-4-hydroxypiperidin-4-yl]methoxy}-8-fluoro-3,4-dihydroquinolin-2(1H)-one] | 224 to 225 °C | < 0.39 µg/mL |  | 
O=C1CCc2c(OC[C@@]3(O)CCN(c4c(F)cc(Cl)cc4F)C[C@@H]3F)ccc(F)c2N1 [Example 449, 5-{[(3S,4S)-1-(4-Chloro-2,6-difluorophenyl)-3-fluoro-4-hydroxypiperidin-4-yl]methoxy}-8-fluoro-3,4-dihydroquinolin-2(1H)-one] | 209 to 210 °C | < 0.39 µg/mL |  | 
N#CC1(c2ccc(Cl)cc2F)CCC(O)(COc2ccc(F)c3c2CCC(=O)N3)CC1 (stereo not drawn) [Example 476, trans-1-(4-Chloro-2-fluorophenyl)-4-{[(8-fluoro-2-oxo-1,2,3,4-tetrahydroquinolin-5-yl)oxy]methyl}-4-hydroxycyclohexanecarbonitrile] |  |  | <0.39 µg/mL | 
O=C1CCc2c(OCC3CCN(c4ncc(Cl)cc4Cl)CC3)ccc(F)c2N1 [Example 399, 5-{[1-(3,5-Dichloropyridin-2-yl)piperidin-4-yl]methoxy}-8-fluoro-3,4-dihydroquinolin-2(1H)-one] | 194 to 195 °C | < 0.39 µg/mL |  | 
O=C1CCc2c(OC[C@]3(O)CC[C@@](O)(c4ccc(Cl)cc4F)C[C@H]3O)ccc(F)c2N1 (relative stereo) [Example 473, 5-{[(1R*,2R*,4S*)-4-(4-Chloro-2-fluorophenyl)-1,2,4-trihydroxycyclohexyl]methoxy}-8-fluoro-3,4-dihydroquinolin-2(1H)-one] |  | < 0.39 µg/mL |  | 
O=C1CCc2c(OC[C@]3(O)CCN(c4ccc(Cl)cc4F)C[C@H]3O)ccc(F)c2N1 [Example 259, 5-{[(3R,4R)-1-(4-Chloro-2-fluorophenyl)-3,4-dihydroxypiperidin-4-yl]methoxy}-8-fluoro-3,4-dihydroquinolin-2(1H)-one] |  | < 0.39 µg/mL |  | < 0.39 µg/mL
O=C1CCc2c(OC[C@H]3CCN(c4ccc(Cl)cc4F)C[C@@H]3O)ccc(F)c2N1 (relative stereo) [Example 419, 5-{[(3R*,4R*)-1-(4-Chloro-2-fluorophenyl)-3-hydroxypiperidin-4-yl]methoxy}-8-fluoro-3,4-dihydroquinolin-2(1H)-one] |  | < 0.39 µg/mL |  | 
O=C1CCc2c(OCC3(O)CCN(c4ncc(Cl)cc4Cl)CC3)ccc(Cl)c2N1 [Example 139, 8-Chloro-5-{[1-(3,5-dichloropyridin-2-yl)-4-hydroxypiperidin-4-yl]methoxy}-3,4-dihydroquinolin-2(1H)-one] | 218 °C | < 0.39 µg/mL |  | 
NC1(COc2ccc(Cl)c3[nH]c(=O)ccc23)CCN(c2ccc(Cl)cc2F)CC1 [Example 17, 5-{[4-Amino-1-(4-chloro-2-fluorophenyl)piperidin-4-yl]methoxy}-8-chloroquinolin-2(1H)-one] |  | < 0.39 µg/mL |  | 
